What all share (type): biochemical
One experiment addresses T1, PAD4 (Homo sapiens, UniProt Q9UM07).
T1 construct: made in house
Description: Inactivation kinetics of PAD4 (COLDER citrulline assay). As to conditions: for Fold PAD selectivity: bracketed value under kinact/KI; for kinact/KI: marks: * nonlinear fit of kobs versus [I], ‡ linear fit, † single kobs. On the procedure: (§1) Inactivation kinetics. […] After 15 min, reactions were quenched with liquid nitrogen and the production of citrulline was quantified using the COLDER assay. (Kearney, et al. Biochemistry 2005, 44, 10570-10582; Knipp, et al. Anal. Biochem. 2000, 286, 257-264.) The time-dependence of PAD inhibition was fit to the following equation 1, […] (1), using Grafit, version 5.0.11, where v is velocity, ν0 is initial velocity, k (or kobs is the pseudo-first-order rate constant of inactivation, and t is time. Upon reaching saturation, the concentration dependence of kobs was fit to equation 2, kobs=kinact[I]/(KI+[I]), (2), using Grafit, version 5.0.11, where kinact is the maximal rate of inactivation, KI is the concentration of inhibitor that affords half-maximal inactivation, and [I] is the concentration of inhibitor. When kobs with [I] varied linearly, kinact/KI was determined from the slope of the line. All the experiments were performed at least in duplicate.

Another experiment deals with T2, PAD2 (Homo sapiens, UniProt Q9Y2J8).
T2 construct: made in house
Put plainly: Inactivation kinetics of PAD2 (COLDER citrulline assay). As to conditions: for Fold PAD selectivity: bracketed value under kinact/KI; for kinact/KI: marks: * nonlinear fit of kobs versus [I], ‡ linear fit, † single kobs; for Ki: concentration of inhibitor that affords half-maximal inactivation. On the procedure:
as §1

In another experiment the target is T3, PAD3 (Homo sapiens, UniProt Q9ULW8).
T3 construct: made in house
T3 sequence (Q9ULW8 1-664): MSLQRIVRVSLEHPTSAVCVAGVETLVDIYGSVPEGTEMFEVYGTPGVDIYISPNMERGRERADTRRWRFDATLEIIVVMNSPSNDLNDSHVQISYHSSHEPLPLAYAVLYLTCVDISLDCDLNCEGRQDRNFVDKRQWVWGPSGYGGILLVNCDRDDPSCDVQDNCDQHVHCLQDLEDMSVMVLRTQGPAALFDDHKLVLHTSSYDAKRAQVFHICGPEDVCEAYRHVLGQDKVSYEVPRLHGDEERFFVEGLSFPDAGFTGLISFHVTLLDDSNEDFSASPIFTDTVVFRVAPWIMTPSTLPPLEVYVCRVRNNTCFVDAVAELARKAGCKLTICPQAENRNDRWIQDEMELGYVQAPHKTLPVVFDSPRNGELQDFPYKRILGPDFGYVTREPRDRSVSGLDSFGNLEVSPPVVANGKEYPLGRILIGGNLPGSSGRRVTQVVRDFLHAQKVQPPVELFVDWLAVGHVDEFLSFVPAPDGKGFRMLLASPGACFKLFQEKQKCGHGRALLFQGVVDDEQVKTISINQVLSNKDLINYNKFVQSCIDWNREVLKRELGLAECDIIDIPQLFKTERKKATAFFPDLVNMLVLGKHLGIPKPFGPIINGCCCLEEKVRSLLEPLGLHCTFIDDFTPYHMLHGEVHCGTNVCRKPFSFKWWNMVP
Description: Inactivation kinetics of PAD3 (COLDER citrulline assay). As to conditions: for Fold PAD selectivity: bracketed value under kinact/KI; for kinact/KI: marks: * nonlinear fit of kobs versus [I], ‡ linear fit, † single kobs. On the procedure:
as §1

In the next experiment the target is T4, PAD1 (Homo sapiens, UniProt Q9ULC6).
T4 construct: made in house
T4 sequence (Q9ULC6 1-663): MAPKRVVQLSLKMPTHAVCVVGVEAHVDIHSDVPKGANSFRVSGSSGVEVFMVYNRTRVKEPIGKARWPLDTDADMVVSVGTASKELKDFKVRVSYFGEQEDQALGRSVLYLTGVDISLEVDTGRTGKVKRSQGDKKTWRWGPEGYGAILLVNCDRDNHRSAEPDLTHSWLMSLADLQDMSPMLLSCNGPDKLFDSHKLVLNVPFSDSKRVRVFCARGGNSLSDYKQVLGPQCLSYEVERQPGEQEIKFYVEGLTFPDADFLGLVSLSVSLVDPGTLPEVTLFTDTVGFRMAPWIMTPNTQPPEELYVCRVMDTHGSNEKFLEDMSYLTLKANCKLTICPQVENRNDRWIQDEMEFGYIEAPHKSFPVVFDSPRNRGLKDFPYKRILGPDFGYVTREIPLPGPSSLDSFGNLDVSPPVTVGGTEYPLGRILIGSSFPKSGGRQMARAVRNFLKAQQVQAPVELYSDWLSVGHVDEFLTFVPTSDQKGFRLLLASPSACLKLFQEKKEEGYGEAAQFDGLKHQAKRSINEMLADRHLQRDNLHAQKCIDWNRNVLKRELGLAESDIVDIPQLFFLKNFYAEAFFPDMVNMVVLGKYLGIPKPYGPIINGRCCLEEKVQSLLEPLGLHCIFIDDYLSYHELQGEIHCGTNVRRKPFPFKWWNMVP
Put plainly: Inactivation kinetics of PAD1 (COLDER citrulline assay). As to conditions: for kinact/KI / Ki / kinact / fold less potent than 1 (drop in potency for PAD1): PAD1; for kinact/KI: marks: * nonlinear fit of kobs versus [I], ‡ linear fit, † single kobs; for Fold PAD selectivity: PAD1 over the other PADs, bracketed value under kinact/KI; for Ki: concentration of inhibitor that affords half-maximal inactivation; for kinact: read-out: kinact (converted); for fold less potent than 1 (drop in potency for PAD1): relative to parent compound 1. On the procedure:
as §1

[1] abbreviates: read-out: kinact/KI (converted).

Where two headings read alike, the source gives them in different places.

T2 sequence (Q9Y2J8 whole entry): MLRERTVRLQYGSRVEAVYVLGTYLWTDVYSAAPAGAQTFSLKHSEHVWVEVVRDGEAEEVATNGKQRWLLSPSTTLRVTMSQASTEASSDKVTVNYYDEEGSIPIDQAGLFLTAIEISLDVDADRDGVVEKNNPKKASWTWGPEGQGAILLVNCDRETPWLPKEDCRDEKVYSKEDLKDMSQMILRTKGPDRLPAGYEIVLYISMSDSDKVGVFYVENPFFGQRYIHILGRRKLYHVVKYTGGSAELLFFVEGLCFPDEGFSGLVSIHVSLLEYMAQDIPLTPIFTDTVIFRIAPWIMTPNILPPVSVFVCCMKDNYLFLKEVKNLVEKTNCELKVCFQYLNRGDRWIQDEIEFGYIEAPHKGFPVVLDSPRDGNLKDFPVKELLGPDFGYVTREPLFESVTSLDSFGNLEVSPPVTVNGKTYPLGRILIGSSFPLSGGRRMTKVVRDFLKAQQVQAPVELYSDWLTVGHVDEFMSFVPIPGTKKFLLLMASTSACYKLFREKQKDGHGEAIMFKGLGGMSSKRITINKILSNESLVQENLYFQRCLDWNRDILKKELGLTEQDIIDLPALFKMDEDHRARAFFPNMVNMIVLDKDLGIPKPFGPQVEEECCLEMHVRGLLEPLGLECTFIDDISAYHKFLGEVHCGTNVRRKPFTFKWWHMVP
T1 sequence (Q9UM07 whole entry): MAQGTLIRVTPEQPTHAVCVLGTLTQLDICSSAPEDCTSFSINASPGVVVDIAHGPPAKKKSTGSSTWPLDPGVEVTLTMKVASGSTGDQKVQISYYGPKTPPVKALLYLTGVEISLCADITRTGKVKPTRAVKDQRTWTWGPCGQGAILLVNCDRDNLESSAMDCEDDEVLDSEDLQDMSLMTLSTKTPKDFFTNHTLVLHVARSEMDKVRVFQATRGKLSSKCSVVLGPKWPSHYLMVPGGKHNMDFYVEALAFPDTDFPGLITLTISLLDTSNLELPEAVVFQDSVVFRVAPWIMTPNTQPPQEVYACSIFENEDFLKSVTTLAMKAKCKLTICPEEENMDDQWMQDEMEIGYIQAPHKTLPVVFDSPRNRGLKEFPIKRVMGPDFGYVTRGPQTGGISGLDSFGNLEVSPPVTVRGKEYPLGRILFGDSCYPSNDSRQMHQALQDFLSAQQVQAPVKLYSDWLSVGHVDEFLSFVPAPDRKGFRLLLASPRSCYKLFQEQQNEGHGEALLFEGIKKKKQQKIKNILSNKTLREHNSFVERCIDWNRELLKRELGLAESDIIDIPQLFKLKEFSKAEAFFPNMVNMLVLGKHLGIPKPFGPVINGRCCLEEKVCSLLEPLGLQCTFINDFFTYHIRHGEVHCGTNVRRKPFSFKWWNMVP

Consider `N=C(CCl)NCCC[C@H](NC(=O)c1cc(I)ccc1O)c1nc2ccccc2[nH]1` [Compound 16], for which the “Fold PAD selectivity” value was “[2] fold” at PAD4, “[1] fold” on PAD2, “[3] fold” at PAD3 and “[2] fold” on PAD1. Moreover, the kinact/KI on PAD4 is on record as 3600 ± 70^‡ M^−1min^−1; on PAD2, 1700 ± 70^‡ M^−1min^−1; on PAD3, 5000 ± 280^‡ M^−1min^−1; on PAD1, 3900 ± 100^‡ M^−1min^−1.
For `N=C(CF)NCCC[C@H](NC(=O)c1cc(I)cc(I)c1)c1nc2ccccc2[nH]1` [Compound 5], the “Fold PAD selectivity” value is “[1] fold” on PAD4, “[1] fold” at PAD2, “[3] fold” at PAD3 and “[9] fold” at PAD1. For the same compound, the kinact/KI at PAD4 (setting [1]) is 17.8 M⁻¹ s⁻¹; on PAD2 (setting [1]), 12.8 M⁻¹ s⁻¹; on PAD3 (setting [1]), 41.2 M⁻¹ s⁻¹; at PAD1 (setting [1]) it was 121 M⁻¹ s⁻¹. The same compound had a Ki at PAD1 of 30.2 µM. Also, the kinact at PAD1 is 0.00367 s⁻¹.
Turning to `CC(C)c1cc(C(=O)N[C@@H](CCCNC(=N)CF)c2nc3ccccc3[nH]2)c(O)c(C(C)C)c1` [Compound 9], the “Fold PAD selectivity” value at PAD4 was “[1] fold”; at PAD2, “[2] fold”; on PAD3, “[3] fold”; on PAD1 it was “[1] fold”. For the same compound, the kinact/KI on PAD4 is given as 240 ± 20^† M^−1min^−1; at PAD2, 400 ± 30^† M^−1min^−1; at PAD3 it was 580 ± 120^† M^−1min^−1; on PAD1 it was 190 ± 20^† M^−1min^−1.
Regarding `N=C(CF)NCCC[C@H](NC(=O)c1cc(Br)cc(Br)c1O)c1nc2ccccc2[nH]1` [Compound 11], the “Fold PAD selectivity” value at PAD4 was “[2] fold”; on PAD2, “[1] fold”; on PAD3, “[3] fold”; at PAD1 it was 25 fold. Further, the kinact/KI at PAD4 (setting [1]) is 4.17 M⁻¹ s⁻¹; on PAD2 (setting [1]), 2.17 M⁻¹ s⁻¹; at PAD3 (setting [1]), 7 M⁻¹ s⁻¹; on PAD1 (setting [1]), 54.7 M⁻¹ s⁻¹. Further, the Ki on PAD1 was determined as 54.8 µM. In addition, on PAD1, the kinact was 0.003 s⁻¹. Also, the “fold less potent than 1 (drop in potency for PAD1)” value at PAD1 is reported as 3 fold.
For the compound `COc1c(I)cc(I)cc1C(=O)NC(CCCNC(=N)CF)c1nc2ccccc2[nH]1` (centres unmarked) [Compound 3], the “Fold PAD selectivity” value at PAD4 is “[1] fold”; on PAD2, “[2] fold”; at PAD3, “[3] fold”; at PAD1 it was “[8] fold”. Moreover, the kinact/KI at PAD4 (setting [1]) was 12.5 M⁻¹ s⁻¹; at PAD2 (setting [1]), 27.5 M⁻¹ s⁻¹; at PAD3 (setting [1]) it was 36 M⁻¹ s⁻¹; on PAD1 (setting [1]), 97.8 M⁻¹ s⁻¹. The same compound gave a Ki at PAD1 of 44.3 µM. The kinact on PAD1 was 0.00433 s⁻¹.
At PAD2, `N=C(CCl)NCCC[C@H](NC(=O)c1cc(I)c(F)c(I)c1O)c1nc2ccccc2[nH]1` [Compound 20] yielded a Ki of 17.5 µM.
For `N=C(CCl)NCCC[C@H](NC(=O)c1cc(Cl)cc(Cl)c1O)c1nc2ccccc2[nH]1` [Compound 14], the “Fold PAD selectivity” value on PAD4 is “[1] fold”; on PAD2 it was “[1] fold”; at PAD3, “[2] fold”; on PAD1, “[2] fold”. Further, the kinact/KI at PAD4 was 2600 ± 70^‡ M^−1min^−1; at PAD2 it was 3400 ± 70^‡ M^−1min^−1; on PAD3 it was 5500 ± 300^‡ M^−1min^−1; at PAD1, 5300 ± 210^‡ M^−1min^−1.
In the case of `COc1c(I)cc(I)cc1C(=O)N[C@@H](CCCNC(=N)CCl)c1nc2ccccc2[nH]1` [Compound 4], the Ki on PAD2 is 208 µM.
For `N=C(CF)NCCC[C@H](NC(=O)c1cc(Cl)cc(Cl)c1O)c1nc2ccccc2[nH]1` [Compound 13], the “Fold PAD selectivity” value is “[2] fold” on PAD4, “[1] fold” on PAD2, “[4] fold” on PAD3 and 10 fold at PAD1. Also, the kinact/KI on PAD4 (setting [1]) is 4.83 M⁻¹ s⁻¹; on PAD2 (setting [1]), 2.17 M⁻¹ s⁻¹; on PAD3 (setting [1]), 9.17 M⁻¹ s⁻¹; at PAD1 (setting [1]), 21.5 M⁻¹ s⁻¹. On PAD1, the Ki is 124 µM. For the same compound, the kinact on PAD1 is 0.00267 s⁻¹. In addition, the “fold less potent than 1 (drop in potency for PAD1)” value on PAD1 came to 8 fold.
On PAD2, `CC(C)c1cc(C(=O)N[C@@H](CCCNC(=N)CCl)c2nc3ccccc3[nH]2)c(O)c(C(C)C)c1` [Compound 10] came in with a Ki of 131 µM.
Turning to `N=C(CF)NCCC[C@H](NC(=O)c1cc(I)ccc1O)c1nc2ccccc2[nH]1` [Compound 15], the “Fold PAD selectivity” value on PAD4 is “[5] fold”; on PAD2, “[1] fold”; at PAD3, “[4] fold”; at PAD1, 13 fold. The kinact/KI on PAD4 (setting [1]) was 10.7 M⁻¹ s⁻¹; on PAD2 (setting [1]), 2 M⁻¹ s⁻¹; at PAD3 (setting [1]), 8.33 M⁻¹ s⁻¹; at PAD1 (setting [1]), 25 M⁻¹ s⁻¹. Also, the Ki on PAD1 was 46.7 µM. Besides, on PAD1, the kinact is 0.00117 s⁻¹. Moreover, the “fold less potent than 1 (drop in potency for PAD1)” value on PAD1 was determined as 7 fold.
With `N=C(CF)NCCC[C@H](NC(=O)c1cccc(I)c1O)c1nc2ccccc2[nH]1` [Compound 17], the “Fold PAD selectivity” value on PAD4 is “[2] fold”; on PAD2 it was “[1] fold”; on PAD3 it was “[2] fold”; at PAD1 it was 3 fold. The kinact/KI on PAD4 is given as 180 ± 20^† M^−1min^−1; at PAD2, 110 ± 10^† M^−1min^−1; on PAD3, 240 ± 30^† M^−1min^−1; at PAD1 it was 300 ± 30^† M^−1min^−1. Also, on PAD1, the “fold less potent than 1 (drop in potency for PAD1)” value came out at 35 fold.
For `N=C(CCl)NCCC[C@H](NC(=O)c1ccccc1O)c1nc2ccccc2[nH]1` [Compound 8], the “Fold PAD selectivity” value at PAD4 is “[68] fold”; on PAD2 it was “[5] fold”; on PAD3, “[18] fold”; at PAD1, “[1] fold”. The same compound displayed a Ki on PAD4 (concentration of inhibitor that affords half-maximal inactivation) of 25.1 µM. Moreover, the kinact/KI on PAD4 (setting [1]) is 684 M⁻¹ s⁻¹; at PAD2 (setting [1]), 46.7 M⁻¹ s⁻¹; at PAD3 (setting [1]), 176 M⁻¹ s⁻¹; at PAD1 (setting [1]), 10 M⁻¹ s⁻¹. Moreover, on PAD4 (read-out: kinact (converted)), the kinact is 0.0172 s⁻¹.
In turn, `N=C(CCl)NCCC[C@H](NC(=O)c1cc(Br)cc(Br)c1O)c1nc2ccccc2[nH]1` [Compound 12] had a Ki at PAD2 of 91.5 µM.
`N=C(CCl)NCCC[C@H](NC(=O)c1cc(I)cc(I)c1O)c1nc2ccccc2[nH]1` [Compound 2]: at PAD2, the Ki was 93.7 µM.
